Laboratory results reported in PubChem BioAssay (NCI).
Several values for one entry are separate records, joined by “and”; a condition that tells them apart may be missing. Identical values can stand only once.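 Five compound concentrations were applied to cells in 96-well plates for 48 hours; endpoints were derived by simple linear interpolation of the resulting dose-response curve. Abbreviation: GI50, concentration required for 50% inhibition of growth. TGI: total growth inhibition.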 Where a SMILES comes first, the peptide text is derived from it. [ ]: non-standard residue; d: D form. The star is where a group is joined. ξ: configuration not given here. X3 = COc1ccc(C(N*)c2ccc(OC)cc2)cc1; NMeF = CN[C@@H](Cc1ccccc1)C(=O)O; NMeD = CN[C@@H](CC(=O)O)C(=O)O; NMeV = CN[C@H](C(=O)O)C(C)C; ξNMeV = CNC(C(=O)O)C(C)C; Boc = CC(C)(C)OC(=O)*; ξNMeA = CNC(C)C(=O)O; ξV = CC(C)C(N)C(=O)O

Key:
Test in all cases: NCI anticancer screen, dose series, 48 h
[1] = test system: EKVX NSCLC
[2] = test system: U251 CNS
[3] = test system: UACC-62 melanoma
[4] = test system: UO-31 renal
[5] = test system: HL-60(TB) leukemia
[6] = test system: HT29 colon
[7] = test system: KM20L2 colon
[8] = test system: OVCAR-4 ovarian
[9] = test system: 786-0 renal
[10] = test system: DLD-1 colon

| SMILES | GI50 [1] | TGI [1] | GI50 [2] | TGI [2] | GI50 [3] | TGI [3] | GI50 [4] | TGI [4] | GI50 [5] | TGI [5] | GI50 [6] | TGI [6] | GI50 [7] | TGI [7] | GI50 [8] | TGI [8] | GI50 [9] | TGI [9] | TGI [10] |
| --- | --- | --- | --- | --- | --- | --- | --- | --- | --- | --- | --- | --- | --- | --- | --- | --- | --- | --- | --- |
| N[C@@H]1CCCC[C@@H]1N.O=P([O-])([O-])CN(CCN(CP(=O)([O-])[O-])CP(=O)([O-])[O-])CP(=O)([O-])[O-].[Pt+2] | > 25 µM | > 25 µM | > 25 µM | > 25 µM | > 25 µM | > 25 µM | > 25 µM | > 25 µM | > 25 µM | > 25 µM | > 25 µM | > 25 µM | > 25 µM | > 25 µM | > 25 µM | > 25 µM | > 25 µM | > 25 µM | – |
| CC(=O)O/N=C(/C)c1ccccc1O | – | > 100 µM | – | > 100 µM | – | > 100 µM | – | > 100 µM | – | > 100 µM | – | > 100 µM | – | > 100 µM | – | > 100 µM | – | > 100 µM | > 100 µM |
| O=C(/C=C/c1ccc([N+](=O)[O-])cc1)c1ccc(NCc2nc3ccccc3[nH]2)cc1 | – | 22.2 µM | – | 3.23 µM | – | 26 µM | – | 16.3 µM | – | 4.25 µM | – | 12.3 µM | – | 15.3 µM | – | 27.8 µM | – | 10.8 µM | 15.7 µM |
| Cc1cc2c(C)[nH]nc2c(C(=O)O)c1C | – | > 100 µM | – | > 100 µM | – | > 100 µM | – | > 100 µM | – | > 100 µM | – | > 100 µM | – | > 100 µM | – | > 100 µM | – | > 100 µM | > 100 µM |
| C/C(=N/Nc1ccc([N+](=O)[O-])cc1[N+](=O)[O-])C(CC(C(=O)NCc1ccccc1)/C(C)=N\Nc1ccc([N+](=O)[O-])cc1[N+](=O)[O-])C(=O)NCc1ccccc1 (configuration not stated) | – | 32.9 µM | – | 11.1 µM | – | 28.4 µM | – | 14.2 µM | – | – | – | 18.5 µM | – | 37.5 µM | – | 5.59 µM | – | 13.1 µM | 29.4 µM |
| CC(=O)OCCOCNC(=S)N/N=C(\C)c1cnccn1 | – | > 100 µM | – | > 100 µM | – | 36.5 µM | – | > 100 µM | – | 76.1 µM | – | > 100 µM | – | 81.3 µM | – | > 100 µM | – | > 100 µM | > 100 µM |
| c1ccc(NCn2cnc3ccccc32)cc1 | – | > 100 µM | – | > 100 µM | – | > 100 µM | – | > 100 µM | – | – | – | > 100 µM | – | > 100 µM | – | > 100 µM | – | > 100 µM | > 100 µM |
| N#C/C(=C\c1cccc(Cl)c1Cl)c1ccccc1 | – | > 100 µM | – | 69.5 µM | – | > 100 µM | – | > 91.2 µM | – | > 100 µM | – | > 100 µM | – | > 100 µM | – | > 85.6 µM | – | 65.2 µM | > 100 µM |
| COC(=O)CC(c1ccccc1)C1(c2ccccc2)SCCS1 (configuration not stated) | – | > 290 µM | – | > 290 µM | – | > 290 µM | – | – | – | > 290 µM | – | > 290 µM | – | > 290 µM | – | – | – | > 290 µM | > 290 µM |
| COc1ccc(OC)c(N2CC(N)C2=O)c1 (configuration not stated) | – | > 100 µM | – | > 100 µM | – | > 100 µM | – | > 100 µM | – | > 100 µM | – | > 100 µM | – | > 100 µM | – | > 100 µM | – | > 100 µM | – |
| COc1ccc(C(NC(=O)C[C@@H](C(=O)N(C)C(C)C(=O)O)N(C)C(=O)[C@@H]2CCCN2C(=O)[C@H](C(C)C)N(C)C(=O)C(C(C)C)N(C)C(=O)[C@H](Cc2ccccc2)N(C)C(=O)C(NC(=O)OC(C)(C)C)C(C)C)c2ccc(OC)cc2)cc1 (some centres not stated) (Boc-[ξV][NMeF][ξNMeV][NMeV]P[NMeD](X3)[ξNMeA]-OH) | 21.6 µM | 37.5 µM and 39.6 µM | 19.4 µM | 23.6 µM and 35.7 µM | 0.803 µM | 12.5 µM and 20.9 µM | 17.6 µM | 37.5 µM and 31.5 µM | 24 µM | 18.7 µM and 45.2 µM | – | 37.2 µM and 32.4 µM | – | 37.6 µM | 24.8 µM | 37.5 µM and 64.5 µM | 17.9 µM | 33.4 µM and 31.7 µM | 32.1 µM |
| O=C1CCCCN1c1ccccc1C#C/C=C\C#Cc1ccccc1C(F)(F)F | 4.08 µM | > 50 µM | 1.52 µM | 5.26 µM | 1.44 µM | 4.86 µM | 2 µM | 13.6 µM | 1.27 µM | 3.29 µM | 0.97 µM | 2.63 µM | – | – | 3.6 µM | 19.1 µM | 1.61 µM | 7.26 µM | – |
| CC(C)[C@@H]1C=C2CC[C@H]3[C@](C)(CN)CCC[C@]3(C)[C@H]2CC1 | 7.32 µM | 23.4 µM | 1.76 µM | 3.28 µM | 16 µM | 30.5 µM | 3.33 µM | 16.1 µM | 1.38 µM | 4.39 µM | 1.84 µM | 3.64 µM | – | – | 15.1 µM | 34.3 µM | 2.02 µM | 4.1 µM | – |
| CC1=C2C(=C[C@@](C)(CO)[C@@H]2O)C(=O)[C@](C)(O)C12CC2 | – | 0.0678 µM and 0.0153 µM | – | 0.0243 µM and 0.0794 µM | – | 0.0265 µM | – | 0.0422 µM | – | 0.0327 µM | – | 0.0286 µM | – | – | – | 0.0267 µM | – | 0.0143 µM and 0.0638 µM | – |
| Nc1n[nH]c2cccc(C#Cc3cccc(C(=O)Nc4ccc(CN5CCOCC5)c(C(F)(F)F)c4)c3)c12 | 3.42 µM | 19 µM | 2.75 µM | 15.2 µM | 1.12 µM | 3.52 µM | 1.9 µM | 5.82 µM | 1.17 µM | 5 µM | 1.89 µM | 12.2 µM | – | – | 2.15 µM | 6.88 µM | 2.79 µM | 7.74 µM | – |
| CC(=O)NNc1nc(C)c(C(=O)/C=C/c2ccc(NC(C)=O)cc2)s1 | – | > 100 µM | – | > 100 µM | – | > 100 µM | – | > 100 µM | – | > 100 µM | – | > 100 µM | – | > 100 µM | – | – | – | > 100 µM | > 100 µM |
| CCCOc1cc2ccccc2cc1C(=O)Nc1nc(N)c2c(ccc3nccc32)[nH]1 | 0.398 µM | 2.25 µM | 0.0527 µM | 1.4 µM | 0.0403 µM | 1.96 µM | 0.703 µM | 2.4 µM | 0.0307 µM | 0.229 µM | 0.0341 µM | 0.129 µM | – | – | 1.55 µM | 4.37 µM | 0.0509 µM | 1.56 µM | – |
| c1ccc(Sc2ncnc3ccccc23)cc1 | 10.6 µM | 25.1 µM | 12.9 µM | 31.8 µM | 9.06 µM | 23.5 µM | 5.07 µM | 21.1 µM | 6.37 µM | 27.9 µM | 19.3 µM | 44.7 µM | – | – | 8.05 µM | > 100 µM | 14.9 µM | 34.5 µM | – |
